Measured values published in publication PMC6981454, “Promising 2,6,9-Trisubstituted Purine Derivatives for Anticancer Compounds: Synthesis, 3D-QSAR, and Preliminary Biological Assays” (International Journal of Molecular Sciences, 2019).
Where two headings read alike, the source gives them in different places.

What was measured:
Format in all cases: cell-based, human
CACO2 = assay: MTT cytotoxicity assay, 72 h
Procedure: Cytotoxicity assays were performed by using the MTT reduction method as described in the literature [23, 37]. Briefly, cancer cell lines were plated in a flat-bottom 96-wells plate at 1 × 10^4 cells per well density. Then, the cells were incubated with synthetized compounds at different concentrations (from 0.1 to 100 µM) in 200 µL of 10% fetal bovine serum-RPMI or EMEM culture medium at 37 °C for 72 h. Then, 10 µL of MTT was added at a final concentration of 0.5 mg/mL, incubated at 37 °C for 4 h, and then solubilized with 10% sodium dodecyl sulphate (SDS) in 0.1 mM HCl and incubated overnight at 37 °C. Formazan formation was measured at 570 nm in a multi-well reader (StatFax 4200).

MRC-5 = assay: MTT cytotoxicity assay, 72 h, normal control cells; settings: normal fibroblasts
Procedure: (§1) In our study, the human cancer cell lines used were CFAPC- 1 (pancreatic adenocarcinoma); NCI-H460 (large cell lung); HL-60 (acute promyelocytic leukaemia); CACO2 (colorectal adenocarcinoma); HCT-116 (colorectal carcinoma); K562 (chronic myeloid leukaemia); MCF-7 (breast adenocarcinoma); and MRC-5 control cells (normal fibroblasts).
(§2) CFAPC-1, NCI-H460 H1975, HL-60, HCT-116, CACO2, K562, MCF-7, and MCR-5 were grown and maintained in RPMI 1640 and DMEM F12 as appropriate with 10% fetal bovine serum, 100 UI/mL penicillin–streptomycin, and cultured al 37 °C in 5% CO2 humidified atmosphere. Control cultures were treated with dimethyl sulfoxide (1%) alone at the same concentration as in the purine derivatives treatment. Cell viability was determined by trypan blue dye exclusion. Cell numbers were counted in hemocytometer by light microscopy.
(§3) Cytotoxicity assays were performed by using the MTT reduction method as described in the literature. Briefly, cancer cell lines were plated in a flat-bottom 96-wells plate at 1 × 10^4 cells per well density. Then, the cells were incubated with synthetized compounds at different concentrations (from 0.1 to 100 µM) in 200 µL of 10% fetal bovine serum-RPMI or EMEM culture medium at 37 °C for 72 h. Then, 10 µL of MTT was added at a final concentration of 0.5 mg/mL, incubated at 37 °C for 4 h, and then solubilized with 10% sodium dodecyl sulphate (SDS) in 0.1 mM HCl and incubated overnight at 37 °C. Formazan formation was measured at 570 nm in a multi-well reader (StatFax 4200).

HL-60 = assay: MTT cytotoxicity assay, 72 h; settings: for Experimental pIC50 (HL-60): -logIC50 in molar concentration; for Selectivity Index (SI) MRC-5/HL-60: IC50 in MRC-5 / IC50 in HL-60
Procedure: as §1, §2, §3

HCT-116 = assay: MTT cytotoxicity assay, 72 h
Procedure: as §1, §2, §3

K562 = assay: MTT cytotoxicity assay, 72 h; settings: for IC50: MTT, 72 h, IC50 ± SD; for Selectivity Index (SI) MRC-5/K562: IC50 in MRC-5 / IC50 in K562
Procedure: as §1, §2, §3

CFPAC-1 = assay: MTT cytotoxicity assay, 72 h
Procedure: as §1, §2, §3

MCF-7 = assay: MTT cytotoxicity assay, 72 h; settings: for IC50: MTT, 72 h, IC50 ± SD; for Selectivity Index (SI) MRC-5/MCF-7: IC50 in MRC-5 / IC50 in MCF-7
Procedure: as §1, §2, §3

NCI-H460 = assay: MTT cytotoxicity assay, 72 h; settings: for Experimental pIC50 (NCI-H460): -logIC50 in molar concentration; for Selectivity Index (SI) MRC-5/NCI-H460: IC50 in MRC-5 / IC50 in NCI-H460
Procedure: as §1, §2, §3

HL-60 cells = assay: Cell viability by propidium iodide flow cytometry; settings: HL-60, 50 μM, 24 h, PI staining
Description: Next, in order to determinate the cell death type induced by the most promising compounds, we performed a flow cytometry analysis of cell viability in cell line HL-60 treated with the most promising compounds (selected according to their IC50 values and SI). The HL-60 cancer cells were chosen due to their sensitivity to prepared compounds. […] As a preliminary apoptosis filter, propidium iodide (PI) staining was used through flow cytometry analysis which discriminated a population of viable cells impermeable to PI (PI negative) from necrotic cells PI-permeable (PI positive) and apoptotic cells (the difference of the previous two). The results are shown in Figure 7, illustrating that all purine derivatives tested induced apoptosis on HL-60 cells. Around 40% of apoptotic cells were detected in a culture treated with compounds 7a and 7i, 30% by 7e, 7g, and 7h and 70% by 7d and 7j. […] (For dot plots, see Supplementary Information Figures S1–S3.)
Cell viability was analyzed by flow cytometry as previously described. In this assay, after setting the baseline to exclude cell debris, cells impermeable to propidium iodide (PI negative) are considered as viable. Two populations of PI-permeable dead cells are distinguished based on fluorescence intensity, corresponding to either hypodiploid apoptotic cells or necrotic cells with intact DNA. Here, HL60 cells were incubated with concentrations of 50 µM of each compound for 24 h at 37 °C. Cells were harvested and stained with 10 µg/mL of propidium iodide to determine cell viability. Samples containing roughly 1 × 10^4 cells were evaluated by flow cytometry (FACScanto II; Becton Dickinson, Mountain View, CA) and analyzed using FCS Express v6 software. Three independent biological replicates were performed.

[1] = MTT, 72 h, IC50 ± SD, read-out: IC50 HL-60
[2] = MTT, 72 h, IC50 ± SD, read-out: IC50 NCI-H460
[3] = Homo sapiens, Caco-2, IC50 ± SD
[4] = Homo sapiens, HL-60, 72 h, MTT, 72 h, IC50 ± SD, read-out: IC50 HL-60
[5] = Homo sapiens, HCT-116, IC50 ± SD
[6] = Homo sapiens, CFPAC-1, IC50 ± SD
[7] = Homo sapiens, NCI-H460, 72 h, MTT, 72 h, IC50 ± SD, read-out: IC50 NCI-H460
[8] = Homo sapiens, HL-60, -logIC50 in molar concentration, Table S1, read-out: Experimental pIC50 (HL-60) (converted)
[9] = Homo sapiens, NCI-H460, -logIC50 in molar concentration, Table S2, read-out: Experimental pIC50 (NCI-H460) (converted)

Compound	IC50 (CACO2; IC50 ± SD) [µM]	IC50 (MRC-5; IC50 ± SD) [µM]	Experimental pIC50 (HL-60) (HL-60; Table S1) [M]	IC50 (HL-60; [1]) [µM]	IC50 (HCT-116; IC50 ± SD) [µM]	IC50 (K562) [µM]	IC50 (CFPAC-1; IC50 ± SD) [µM]	IC50 (MCF-7) [µM]	IC50 (NCI-H460; [2]) [µM]	IC50 (CACO2; [3]) [µM]	IC50 (MRC-5; Homo sapiens, MRC5, IC50 ± SD) [µM]	IC50 (HL-60; [4]) [µM]	IC50 (HCT-116; [5]) [µM]	IC50 (K562; Homo sapiens, K562, 72 h) [µM]	IC50 (CFPAC-1; [6]) [µM]	IC50 (MCF-7; Homo sapiens, MCF7, 72 h) [µM]	IC50 (NCI-H460; [7]) [µM]	apoptotic cells (HL-60 cells)	IC50 (HL-60; [8]) [µM]	IC50 (NCI-H460; [9]) [µM]	also measured
CCn1cnc2c(-c3ccc(OC(F)(F)F)cc3)nc(NCC3CCCCC3)nc21 [4c, N-(cyclohexylmethyl)-9-ethyl-6-(4-(trifluoromethoxy)phenyl)-9H-purin-2-amine]	> 100	60 ± 1	4.6021	25 ± 5.4	> 50	> 25	67 ± 1	> 25	64 ± 2												Experimental pIC50 (NCI-H460) (NCI-H460; Table S2): 4.1938 M
Clc1nc(N2CCN(c3ccccn3)CC2)c2ncn(C3CCCC3)c2n1 [7b, 2-Chloro-9-cyclopentyl-6-(4-(pyridin-2-yl)piperazin-1-yl)-9H-purine]										> 100	> 100	> 50	> 50	3.06 ± 0.54	> 100	5.07 ± 0.9	> 100				
O=[N+]([O-])c1ccc(N2CCN(c3nc(Cl)nc4c3ncn4C3CCCC3)CC2)nc1 [7a, 2-Chloro-9-cyclopentyl-6-(4-(5-nitropyridin-2-yl)piperazin-1-yl)-9H-purine]									5.73 ± 0.37	> 100	> 100		6.4 ± 1.3	0.87 ± 0.01	> 100	0.95 ± 0.14	< 10	Around 40%	2.1	5.73	Selectivity Index (SI) MRC-5/HL-60 (HL-60): > 47.6; Selectivity Index (SI) MRC-5/K562 (K562): > 115; Selectivity Index (SI) MRC-5/MCF-7 (MCF-7): > 105; Selectivity Index (SI) MRC-5/NCI-H460 (NCI-H460): > 17.5
Clc1nc(N2CCN(c3ccncc3)CC2)c2ncn(C3CCCC3)c2n1 [7i, 2-Chloro-9-cyclopentyl-6-(4-(pyridin-4-yl)piperazin-1-yl)-9H-purine]									8.54 ± 0.21	> 100	> 100	3.8 ± 1.5	> 50	9.96 ± 0.93	> 100	22 ± 1	< 10	Around 40%	3.8	8.54	Selectivity Index (SI) MRC-5/HL-60 (HL-60): > 26.3; Selectivity Index (SI) MRC-5/K562 (K562): > 10; Selectivity Index (SI) MRC-5/MCF-7 (MCF-7): > 4.5; Selectivity Index (SI) MRC-5/NCI-H460 (NCI-H460): > 11.7
CCCn1cnc2c(-c3ccc(OC(F)(F)F)cc3)nc(NC3CCCCCC3)nc21 [4h, N-cycloheptyl-9-propyl-6-(4-(trifluoromethoxy)phenyl)-9H-purin-2-amine]										> 100	> 100	14 ± 1	> 50	> 25	> 100	> 25	> 100		14		
N-cycloheptyl-9-ethyl-6-(4-(trifluoromethoxy)phenyl)-9H-purin-2-amine [4d]	> 100	> 100	4.6778	21 ± 1	> 50	> 25	> 100	> 25	> 100												
N.N.[Cl][Pt][Cl] [Cisplatin, reference compound]		6.78 ± 0.18		6.2 ± 0.2	3.89 ± 1.3	4.67 ± 0.38	3.16 ± 0.1	10.9 ± 0.8	4.77 ± 0.13									66%			IC50 (NCI-H460; MTT, 72 h, IC50 ± SD, listed as cisplatin, read-out: IC50 NCI-H460): 4.8 µM
CCCn1cnc2c(-c3ccc(OC(F)(F)F)cc3)nc(NCC3CCCCC3)nc21 [4g, N-(cyclohexylmethyl)-9-propyl-6-(4-(trifluoromethoxy)phenyl)-9H-purin-2-amine]	> 100	> 100	4.6778	21 ± 5	> 50	> 25	98 ± 5	> 25	72 ± 2												Experimental pIC50 (NCI-H460) (NCI-H460; Table S2): 4.1427 M
CCCn1cnc2c(-c3ccc(OC(F)(F)F)cc3)nc(NC3CCCC3)nc21 [4e, N-cyclopentyl-9-propyl-6-(4-(trifluoromethoxy)phenyl)-9H-purin-2-amine]	> 100	> 100	4.7447	18 ± 4	> 50	> 25	> 100	> 25	> 100												
Clc1nc(N2CCC(c3ccccc3)CC2)c2ncn(C3CCCC3)c2n1 [7e, 2-Chloro-9-cyclopentyl-6-(4-phenylpiperidin-1-yl)-9H-purine]										> 100	> 100	3 ± 0.6	> 50		> 100		11 ± 1	~30%	3	11	Selectivity Index (SI) MRC-5/HL-60 (HL-60): > 33.3; Selectivity Index (SI) MRC-5/NCI-H460 (NCI-H460): > 9.1
Clc1nc(N2CCN(c3cnccn3)CC2)c2ncn(C3CCCC3)c2n1 [7d, 2-Chloro-9-cyclopentyl-6-(4-(pyrazin-2-yl)piperazin-1-yl)-9H-purine]										> 100	17 ± 1	4.6 ± 0.2	> 50	5.86 ± 1.06	> 100	> 12.5	8.25 ± 0.11	~70%	4.6	8.25	Selectivity Index (SI) MRC-5/HL-60 (HL-60): 3.7; Selectivity Index (SI) MRC-5/K562 (K562): 2.9; Selectivity Index (SI) MRC-5/NCI-H460 (NCI-H460): 2.0
Clc1nc(N2CCN(c3ccccc3)CC2)c2ncn(C3CCCC3)c2n1 [7f, 2-Chloro-9-cyclopentyl-6-(4-phenylpiperazin-1-yl)-9H-purine]										> 100	> 100	1.3 ± 0.5	> 50	4.22 ± 0.27	> 100	6.13 ± 0.25	6.71 ± 0.23		1.3	6.71	
N-cyclohexyl-9-ethyl-6-(4-(trifluoromethoxy)phenyl)-9H-purin-2-amine [4b]	> 100	> 100		> 50	> 50	> 25	> 100	> 25	> 100												
CCCn1cnc2c(-c3ccc(OC(F)(F)F)cc3)nc(NC3CCCCC3)nc21 [4f, N-cyclohexyl-9-propyl-6-(4-(trifluoromethoxy)phenyl)-9H-purin-2-amine]	> 100	68 ± 1	5.0088	9.8 ± 1.5	> 50	> 25	69 ± 1	> 25	> 100												
